Article PMC8745263 (International Journal of Molecular Sciences, 2021)
“Also recorded” adds a separate entry of the source. Square brackets hold non-standard residues; d marks the D form. Peptide text beside a SMILES is read from it. Met(O) = CS(=O)CC[C@H](N)C(=O)O

Legend:
[1] = molecular target: T1, APEH partially purified from human blood cells (Homo sapiens, UniProt P13798); assay: Treatment of peptides with APEH and assessment of proteolysis by LC-MS; type: biochemical; conditions: 10 nmol/200 μL peptide, APEH 0.7 μg, 37 °C, 48 h; for % fragment cleaved on carboxy side of H59 (Ac-...HTH, lacking LVQQA), percentage of the initial substrate / % fragment cleaved on carboxy side of Q62 (Ac-...HTHLVQ, lacking QA), percentage of the initial substrate / % intact peptide left after APEH exposure (percentage of the initial substrate): Tris-HCl 25 mM pH 7.5, EIC peak areas, average of three independent experiments; for % Degradation (overall % of peptide degraded upon exposure to APEH): sum of fragment % of Table 2(a), Tris-HCl 25 mM pH 7.5, N.D. = not degraded
T1 construct: incubated with APEH partially purified from human blood cells; from tissue; host or cells: human red blood cells (erythrocyte hemolysate from donors' blood)
T1 sequence (P13798 1-732): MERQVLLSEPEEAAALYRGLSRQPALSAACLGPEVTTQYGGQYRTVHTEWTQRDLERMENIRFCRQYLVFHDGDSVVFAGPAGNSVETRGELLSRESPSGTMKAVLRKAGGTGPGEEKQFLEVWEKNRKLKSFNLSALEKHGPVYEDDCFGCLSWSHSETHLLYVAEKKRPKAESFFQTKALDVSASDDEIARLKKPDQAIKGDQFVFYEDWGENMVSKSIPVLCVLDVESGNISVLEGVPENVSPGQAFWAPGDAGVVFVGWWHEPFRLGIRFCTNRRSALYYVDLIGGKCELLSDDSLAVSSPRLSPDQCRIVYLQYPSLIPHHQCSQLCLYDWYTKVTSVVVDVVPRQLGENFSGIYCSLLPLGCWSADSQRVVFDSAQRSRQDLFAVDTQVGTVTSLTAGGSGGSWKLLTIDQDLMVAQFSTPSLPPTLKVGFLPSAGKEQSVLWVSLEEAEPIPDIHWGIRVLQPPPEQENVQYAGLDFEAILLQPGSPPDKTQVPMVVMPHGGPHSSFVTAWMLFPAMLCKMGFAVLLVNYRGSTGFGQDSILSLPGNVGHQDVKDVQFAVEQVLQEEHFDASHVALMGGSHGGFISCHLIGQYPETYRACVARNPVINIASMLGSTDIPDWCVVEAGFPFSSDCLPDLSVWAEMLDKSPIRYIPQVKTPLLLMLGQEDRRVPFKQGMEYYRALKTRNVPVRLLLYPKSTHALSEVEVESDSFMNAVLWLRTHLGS
Protocol: In order to identify the potential cleavage sites of APEH on the oxidized GDF11[48-64], the peptide was incubated alone or in combination with the enzyme and the corresponding reaction mixtures were analyzed by LC-MS. The same experiments were performed using the non-oxidized analogues as control.
Blood samples were taken from donors using syringes with heparin. In accordance with ethical principles stated in the Declaration of Helsinki, as well as with approved national and international guidelines for human research, a written informed consent was obtained from participants. The erythrocytes were separated from the plasma by centrifugation at 1800× g for 5 min at 4 °C and washed twice with an isotonic solution (10 mM Tris-HCl pH 7.6, […]; 4 °C). Lysis of erythrocytes was carried out by incubation in hypotonic solution (25 mM Tris/HCl, pH 7.5) for 30 min on ice. The hemolysate was obtained by centrifugation of the lysate at 9200× g for 40 min at 4 °C. Then, the ‘soluble fraction’ was loaded onto a DEAE Sepharose Fast Flow column, connected to an AKTA FPLC system (Amersham Biosciences, Amersham, UK), previously equilibrated in 25 mM Tris-HCl (pH 7.5) (buffer A). The bound proteins were eluted using a linear ionic strength gradient (0–100%) of 1 M NaCl in buffer A at a flow rate of 1 mL min^−1. The active fractions were collected, pooled, dialyzed against 25 mM Tris-HCl pH 7.5 and loaded on a Superdex 200 PC 3.2/30 column (Pharmacia Biotech, Stockholm, Sweden) connected to a SMART System (Pharmacia Biotech, Stockholm, Sweden). The bound proteins were eluted with 25 mM Tris-HCl buffer, pH 7.5, containing 50 mM NaCl, at a flow rate of 0.1 mL min^−1. The active fractions were collected, pooled, dialyzed against 25 mM Tris-HCl pH 7.5 and stored in the same buffer supplemented with 5% glycerol. Enzyme purification was monitored using Ac-Met-7-amino-4-methylcoumarin (AMC) as substrate. Active fractions were analyzed by SDS-PAGE (12%) in order to evaluate the enrichment of the protein during the various purification steps. The protein was also characterized by Western Blot analysis. Aliquots of protein samples were subjected to SDS-PAGE (8%), and then electroblotted onto PVDF membranes (ImmobilonTM, Millipore, Milan, Italy). Membranes were next incubated with the specific primary antibody (sc-102311, 1:5000, Santa Cruz Biotechnology, USA) and then with the horseradish peroxidase-conjugated secondary antibody for 1 h at 37 °C (1:5000, Santa Cruz Biotechnology, Dallas, TX, USA). The immune complexes formed were visualized by enhanced chemiluminescence and autoradiography, according to the manufacturer’s protocol (Amersham Biosciences, Amersham, UK). Molecular mass of the native enzyme was established by gel filtration chromatography on a Superdex 200 PC 3.2/30 column (Pharmacia Biotech, Stockholm, Sweden), connected to a SMART system (Pharmacia Biotech, Stockholm, Sweden), and calibrated with BioRad gel filtration standards (BioRad, Milano, Italy; code 151-1901). The enzyme inhibition assay was performed on APEH preparation using the selective and potent inhibitor AA74-1 (SML0358, Sigma-Aldrich, Milano, Italy). Mixtures containing appropriate amount of inhibitor (62 µM) and APEH sample (0.7 μg) were pre-incubated for 30 min at 37 °C; then the substrate Ac-Met-7-amino-4-methylcoumarin (AMC) was added to the assay mixture and the enzymatic activity was followed as previously described. Control samples were prepared by pre-incubating the same amounts of APEH without the inhibitor and then assayed following the same procedure.
In total, 10 nmol/200 μL of each molecule was incubated with APEH partially purified from human blood cells (0.7 μg, 24.000 total units) at 37 °C for 48 h in Tris-HCl 25 mM pH 7.5. […]

[2] = test system: APEH; assay: APEH partially purified from human blood cells (0.7 μg, 24.000 total units) in Tris-HCl 25 mM pH 7.5; conditions: 37 °C, up to 48 h

CC(=O)N[C@@H](CCC(=O)O)C(=O)N[C@@H](Cc1ccc(O)cc1)C(=O)N[C@@H](CC[S+](C)[O-])C(=O)N[C@@H](C)C(=O)N[C@@H](CC[S+](C)[O-])C(=O)N[C@@H](CCC(N)=O)C(=O)N[C@@H](CCCCN)C(=O)N[C@@H](Cc1ccc(O)cc1)C(=O)N1CCC[C@H]1C(=O)N[C@@H](Cc1c[nH]cn1)C(=O)N[C@H](C(=O)N[C@@H](Cc1c[nH]cn1)C(=O)N[C@@H](CC(C)C)C(=O)N[C@H](C(=O)N[C@@H](CCC(N)=O)C(=O)N[C@@H](CCC(N)=O)C(=O)N[C@@H](C)C(N)=O)C(C)C)[C@@H](C)O (some centres unmarked) [GDF11[48-64] F51A ox] (Ac-EY[Met(O)]A[Met(O)]QKYPHTHLVQQA-NH2) was tested, and the “% fragment cleaved on carboxy side of H59 (Ac-...HTH, lacking LVQQA), percentage of the initial substrate” value [1] was 11.7%, the “% fragment cleaved on carboxy side of Q62 (Ac-...HTHLVQ, lacking QA), percentage of the initial substrate” value [1] was 3.3% and the “% intact peptide left after APEH exposure (percentage of the initial substrate)” value [1] was 85.0%. For the same compound, the “% Degradation (overall % of peptide degraded upon exposure to APEH)” value (from here on “% Degradation”) [1] was 15.0%.

For CC(=O)N[C@@H](CCC(=O)O)C(=O)N[C@@H](Cc1ccc(O)cc1)C(=O)N[C@@H](CC[S+](C)[O-])C(=O)N[C@@H](C)C(=O)N[C@@H](C)C(=O)N[C@@H](CCC(N)=O)C(=O)N[C@@H](CCCCN)C(=O)N[C@@H](Cc1ccc(O)cc1)C(=O)N1CCC[C@H]1C(=O)N[C@@H](Cc1c[nH]cn1)C(=O)N[C@H](C(=O)N[C@@H](Cc1c[nH]cn1)C(=O)N[C@@H](CC(C)C)C(=O)N[C@H](C(=O)N[C@@H](CCC(N)=O)C(=O)N[C@@H](CCC(N)=O)C(=O)N[C@@H](C)C(N)=O)C(C)C)[C@@H](C)O (some centres unmarked) [GDF11[48-64] F51M52AA ox] (Ac-EY[Met(O)]AAQKYPHTHLVQQA-NH2), the “% fragment cleaved on carboxy side of H59 (Ac-...HTH, lacking LVQQA), percentage of the initial substrate” value [1] was 16.5%, the “% fragment cleaved on carboxy side of Q62 (Ac-...HTHLVQ, lacking QA), percentage of the initial substrate” value [1] was 0.3% and the “% intact peptide left after APEH exposure (percentage of the initial substrate)” value [1] was 83.2%. The “% Degradation” value [1] was 16.8%.

For CC(=O)N[C@@H](CCC(=O)O)C(=O)N[C@@H](Cc1ccc(O)cc1)C(=O)N[C@@H](CC[S+](C)[O-])C(=O)N[C@@H](Cc1ccccc1)C(=O)N[C@@H](CC[S+](C)[O-])C(=O)N[C@@H](CCC(N)=O)C(=O)N[C@@H](CCC(=O)O)C(=O)N[C@@H](Cc1ccc(O)cc1)C(=O)N1CCC[C@H]1C(=O)N[C@@H](Cc1c[nH]cn1)C(=O)N[C@H](C(=O)N[C@@H](Cc1c[nH]cn1)C(=O)N[C@@H](CC(C)C)C(=O)N[C@H](C(=O)N[C@@H](CCC(N)=O)C(=O)N[C@@H](CCC(N)=O)C(=O)N[C@@H](C)C(N)=O)C(C)C)[C@@H](C)O (some centres unmarked) [GDF11[48-64] K54E ox] (Ac-EY[Met(O)]F[Met(O)]QEYPHTHLVQQA-NH2), the “% fragment cleaved on carboxy side of H59 (Ac-...HTH, lacking LVQQA), percentage of the initial substrate” value [1] was 18.7%, the “% fragment cleaved on carboxy side of Q62 (Ac-...HTHLVQ, lacking QA), percentage of the initial substrate” value [1] was “did not undergo cleavage” and the “% intact peptide left after APEH exposure (percentage of the initial substrate)” value [1] was 81.3%. For the same compound, the “% Degradation” value [1] was 18.7%.

With CC(=O)N[C@@H](CCC(=O)O)C(=O)N[C@@H](Cc1ccc(O)cc1)C(=O)N[C@@H](C)C(=O)N[C@@H](C)C(=O)N[C@@H](CC[S+](C)[O-])C(=O)N[C@@H](CCC(N)=O)C(=O)N[C@@H](CCCCN)C(=O)N[C@@H](Cc1ccc(O)cc1)C(=O)N1CCC[C@H]1C(=O)N[C@@H](Cc1c[nH]cn1)C(=O)N[C@H](C(=O)N[C@@H](Cc1c[nH]cn1)C(=O)N[C@@H](CC(C)C)C(=O)N[C@H](C(=O)N[C@@H](CCC(N)=O)C(=O)N[C@@H](CCC(N)=O)C(=O)N[C@@H](C)C(N)=O)C(C)C)[C@@H](C)O (some centres unmarked) [GDF11[48-64] M50F51AA ox] (Ac-EYAA[Met(O)]QKYPHTHLVQQA-NH2) the “% fragment cleaved on carboxy side of H59 (Ac-...HTH, lacking LVQQA), percentage of the initial substrate” value [1] was 11.3%, the “% fragment cleaved on carboxy side of Q62 (Ac-...HTHLVQ, lacking QA), percentage of the initial substrate” value [1] was 2.0% and the “% intact peptide left after APEH exposure (percentage of the initial substrate)” value [1] was 86.7%. For the same compound, the “% fragment cleaved on carboxy side of H59 (Ac-...HTH, lacking LVQQA), percentage of the initial substrate” value ([1]; listed as M50F51AA) was “about 11%”, the “% Degradation” value [1] was “about 13%” and the “% Degradation” value ([1]; listed as GDF11[48-64]ox M50F51AA) was 13.3%.

With CC(=O)N[C@@H](CCC(=O)O)C(=O)N[C@@H](C)C(=O)N[C@@H](CC[S+](C)[O-])C(=O)N[C@@H](Cc1ccccc1)C(=O)N[C@@H](CC[S+](C)[O-])C(=O)N[C@@H](CCC(N)=O)C(=O)N[C@@H](CCCCN)C(=O)N[C@@H](Cc1ccc(O)cc1)C(=O)N1CCC[C@H]1C(=O)N[C@@H](Cc1c[nH]cn1)C(=O)N[C@H](C(=O)N[C@@H](Cc1c[nH]cn1)C(=O)N[C@@H](CC(C)C)C(=O)N[C@H](C(=O)N[C@@H](CCC(N)=O)C(=O)N[C@@H](CCC(N)=O)C(=O)N[C@@H](C)C(N)=O)C(C)C)[C@@H](C)O (some centres unmarked) [GDF11[48-64] Y49A ox] (Ac-EA[Met(O)]F[Met(O)]QKYPHTHLVQQA-NH2) the “% fragment cleaved on carboxy side of H59 (Ac-...HTH, lacking LVQQA), percentage of the initial substrate” value [1] was 11.5%, the “% fragment cleaved on carboxy side of Q62 (Ac-...HTHLVQ, lacking QA), percentage of the initial substrate” value [1] was 10.2% and the “% intact peptide left after APEH exposure (percentage of the initial substrate)” value [1] was 78.3%. For the same compound, the “% fragment cleaved on carboxy side of H59 (Ac-...HTH, lacking LVQQA), percentage of the initial substrate” value ([1]; listed as Y49A) was “about 11%” and the “% Degradation” value [1] was 21.7%.

With Ac-EAM(ox)FM(ox)QKYPHTHLVQQA-NH2 the cleaved bond [2] was “Q62-Q; also recorded: H59-L”.

For Ac-EYAAM(ox)QKYPHTHLVQQA-NH2, the cleaved bond [2] was “Q62-Q; also recorded: H59-L, major”.

For “Ac-EYAFAQKYPHTHLVQQA-NH2 [GDF11[48-65] M50M52AA, control peptide where the two methionines were replaced with alanine residues]”, the “% intact peptide left after APEH exposure (percentage of the initial substrate)” value [1] was 100%.
